From PubChem BioAssay AID212 (DTP/NCI, 2004) come the findings set out here.

“And” between values parts separate entries of the source, which are not always exact repeats. Identical values can stand only once. Records with an inconclusive call do not appear.

The test system of this assay is BDF1 mice, colon carcinoma 38 sc, T/C %. The experiment in a line: NCI In Vivo Anticancer Drug Screen. Data for tumor model Colon Carcinoma 38 (subcutaneous) in B6D2F1 (BDF1) mice. Particulars: endpoint: median tumor weight (est.), higher = larger tumour. In short, it runs like this:
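T/C readout: treated group (T) measurement over vehicle control group (C) measurement. Endpoint is survival or tumor size in mice bearing a transplanted tumor.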

[1] abbreviates: dose: 100.0 mg/kg/injection, schedule: Q07DX002 (ip), vehicle: water.
Setting [2] is: dose: 200.0 mg/kg/injection, schedule: Q07DX002 (ip), vehicle: water.
[3] abbreviates: dose: 400.0 mg/kg/injection, schedule: Q07DX002 (ip), vehicle: water.
Setting [4] is: dose: 800.0 mg/kg/injection, schedule: Q07DX002 (ip), vehicle: water.
The mark [5] stands for this setting: dose: 12.5 mg/kg/injection, schedule: Q07DX003 (ip), vehicle: saline.
Where [6] appears, read: dose: 25.0 mg/kg/injection, schedule: Q07DX003 (ip), vehicle: saline.
Where [7] appears, read: dose: 50.0 mg/kg/injection, schedule: Q07DX003 (ip), vehicle: saline.
The mark [8] stands for this setting: dose: 100.0 mg/kg/injection, schedule: Q07DX003 (ip), vehicle: saline.
[9] abbreviates: dose: 200.0 mg/kg/injection, schedule: Q07DX003 (ip), vehicle: saline.
Where [10] appears, read: dose: 25.0 mg/kg/injection, schedule: Q07DX002 (ip), vehicle: saline.
Where [11] appears, read: dose: 50.0 mg/kg/injection, schedule: Q07DX002 (ip), vehicle: saline.
The mark [12] stands for this setting: dose: 100.0 mg/kg/injection, schedule: Q07DX002 (ip), vehicle: saline.
[13] abbreviates: dose: 25.0 mg/kg/injection, schedule: Q07DX002 (ip), vehicle: Klucel (hydroxypropylcellulose) (HPC).
Where [14] appears, read: dose: 50.0 mg/kg/injection, schedule: Q07DX002 (ip), vehicle: Klucel (hydroxypropylcellulose) (HPC).

Turning to `NC(=O)c1csc(C2OC(CO)C(O)C2O)n1` (configuration not stated), the T/C reads like this: (dose: 50.0 mg/kg/injection, schedule: Q07DX002 (ip), vehicle: water) 154 % of control; under setting [1], 121 % of control and 106 % of control; under setting [2], 111 % of control and 92 % of control; under setting [3], 124 % of control and 104 % of control; under setting [4], 72 % of control.

With `CCCCC(=O)OCC(=O)[C@]1(O)Cc2c(O)c3c(c(O)c2[C@@H](OC2CC(NC(=O)C(F)(F)F)C(O)C(C)O2)C1)C(=O)c1c(OC)cccc1C3=O` (some centres not stated), the T/C was 168 % of control (dose: 25.0 mg/kg/injection, schedule: Q07DX002 (ip), vehicle: water); 89 % of control under setting [1]; 106 % of control under setting [2]; 71 % of control under setting [3]; 45 % of control under setting [4].

`NC1(C(=O)O)CCCC1`: the T/C is 72 % of control under setting [5]; 78 % of control under setting [6]; 92 % of control under setting [7]; 66 % of control under setting [8]; 16 % of control under setting [9].

Take `N=C(N)Sc1cc(O)ccc1O`: the T/C was 88 % of control under setting [5]; 66 % of control under setting [6]; 77 % of control under setting [7]; 103 % of control under setting [8]; 55 % of control under setting [9].

In the case of `C/C=C\C1OC1(C)c1cc(=O)c2c(C)cc3c(c2o1)C(=O)c1c(O)c(C2CC(C)(N(C)C)C(OC(C)=O)C(C)O2)cc(C2CC(N(C)C)C(O)C(C)O2)c1C3=O` (configuration not stated), the T/C (dose: 0.38 mg/kg/injection, schedule: Q07DX002 (ip), vehicle: saline + alcohol) was 119 % of control; the T/C (dose: 0.75 mg/kg/injection, schedule: Q07DX002 (ip), vehicle: saline + alcohol) was 85 % of control; the T/C (dose: 3.0 mg/kg/injection, schedule: Q07DX002 (ip), vehicle: saline + alcohol) was 58 % of control; the T/C (dose: 6.0 mg/kg/injection, schedule: Q07DX002 (ip), vehicle: saline + alcohol) is 53 % of control.

In the case of `CC1CN1P1(N2CC2C)=NP(N2CC2C)(N2CC2C)=NP(N2CC2C)(N2CC2C)=N1` (configuration not stated), the T/C by setting is: (dose: 6.25 mg/kg/injection, schedule: Q07DX002 (ip), vehicle: saline) 103 % of control; (dose: 12.5 mg/kg/injection, schedule: Q07DX002 (ip), vehicle: saline) 104 % of control; under setting [10], 111 % of control; under setting [11], 155 % of control; under setting [12], 70 % of control and 94 % of control.

`Nc1nc(N)c2cc(CNc3ccc(C(=O)NC(CC(=O)O)CC(=O)O)cc3)ccc2n1`: the T/C is 120 % of control under setting [13]; 97 % of control under setting [14]; 60 % of control (dose: 100.0 mg/kg/injection, schedule: Q07DX002 (ip), vehicle: Klucel (hydroxypropylcellulose) (HPC)); 114 % of control (dose: 200.0 mg/kg/injection, schedule: Q07DX002 (ip), vehicle: Klucel (hydroxypropylcellulose) (HPC)); 76 % of control (dose: 400.0 mg/kg/injection, schedule: Q07DX002 (ip), vehicle: Klucel (hydroxypropylcellulose) (HPC)).

With `CCCC(=O)Nc1ncnc2c1ncn2C1OC2COP(=O)(O)OC2C1OC(=O)CCC` (configuration not stated), the T/C under setting [10] was 84 % of control and 103 % of control; the T/C under setting [12] was 101 % of control and 106 % of control; the T/C (dose: 800.0 mg/kg/injection, schedule: Q07DX002 (ip), vehicle: saline) is 75 % of control and 96 % of control.

In the case of `C=C1C(C)C2C(Cc3ccccc3)NC(=O)C23C(OC(C)=O)C=CC(C)(O)C(=O)C(C)C/C=C/C3C1O` (configuration not stated), the T/C by setting is: (dose: 0.31 mg/kg/injection, schedule: Q07DX003 (ip), vehicle: Klucel (hydroxypropylcellulose) (HPC)) 93 % of control; (dose: 0.62 mg/kg/injection, schedule: Q07DX003 (ip), vehicle: Klucel (hydroxypropylcellulose) (HPC)) 53 % of control; (dose: 1.25 mg/kg/injection, schedule: Q07DX003 (ip), vehicle: Klucel (hydroxypropylcellulose) (HPC)) 72 % of control; (dose: 2.5 mg/kg/injection, schedule: Q07DX003 (ip), vehicle: Klucel (hydroxypropylcellulose) (HPC)) 100 % of control; (dose: 5.0 mg/kg/injection, schedule: Q07DX003 (ip), vehicle: Klucel (hydroxypropylcellulose) (HPC)) 84 % of control; (dose: 10.0 mg/kg/injection, schedule: Q07DX003 (ip), vehicle: Klucel (hydroxypropylcellulose) (HPC)) 105 % of control.

As for `CN(C)[C@@H]1C(=O)C(C(N)=O)=C(O)[C@@]2(O)C(=O)C3=C(O)c4c(O)ccc(Cl)c4[C@@](C)(O)[C@H]3C[C@@H]12`, the T/C runs as follows: under setting [10], 182 % of control; (dose: 25.0 mg/kg/injection, schedule: Q07DX002 (ip), vehicle: suspension in saline) 82 % of control; under setting [11], 188 % of control; (dose: 50.0 mg/kg/injection, schedule: Q07DX002 (ip), vehicle: suspension in saline) 119 % of control; under setting [12], 117 % of control; (dose: 100.0 mg/kg/injection, schedule: Q07DX002 (ip), vehicle: suspension in saline) 80 % of control. Also, the T/C is 93 % of control (dose: 200.0 mg/kg/injection, schedule: Q07DX002 (ip), vehicle: saline); 93 % of control (dose: 200.0 mg/kg/injection, schedule: Q07DX002 (ip), vehicle: suspension in saline); 65 % of control (dose: 400.0 mg/kg/injection, schedule: Q07DX002 (ip), vehicle: suspension in saline).

As to `COc1cc2cc(c1Cl)N(C)C(=O)CC(OC(=O)CC(C)C)C1(C)OC1C(C)C1CC(O)(NC(=O)O1)C(OC)/C=C/C=C(C)C2` (configuration not stated), the T/C is 121 % of control (dose: 6.2 micrograms/kg/injection, schedule: Q07DX003 (ip), vehicle: saline + alcohol) and 75 % of control (dose: 25.0 micrograms/kg/injection, schedule: Q07DX003 (ip), vehicle: saline + alcohol).

In the case of `O=S(=O)(CCl)OCCCl`, the T/C by setting is: (dose: 12.5 mg/kg/injection, schedule: Q07DX002 (ip), vehicle: saline with Tween-80) 103 % of control; (dose: 25.0 mg/kg/injection, schedule: Q07DX002 (ip), vehicle: saline with Tween-80) 111 % of control; (dose: 50.0 mg/kg/injection, schedule: Q07DX002 (ip), vehicle: saline with Tween-80) 58 % of control; (dose: 100.0 mg/kg/injection, schedule: Q07DX002 (ip), vehicle: saline with Tween-80) 55 % of control.

On to `COC1CC(CC2CCC(C)C(C(C)C(=O)O)O2)OC2(OC(C)(C3CCC(C)(C4OC(C5OC(O)(CO)C(C)CC5C)CC4C)O3)CC2C)C1C` (configuration not stated), for which the T/C is 61 % of control (dose: 0.3 mg/kg/injection, schedule: Q07DX002 (ip), vehicle: Klucel (hydroxypropylcellulose) (HPC)); 42 % of control (dose: 0.31 mg/kg/injection, schedule: Q07DX002 (ip), vehicle: Klucel (hydroxypropylcellulose) (HPC)); 74 % of control and 82 % of control (dose: 1.25 mg/kg/injection, schedule: Q07DX002 (ip), vehicle: Klucel (hydroxypropylcellulose) (HPC)); 58 % of control and 70 % of control (dose: 2.5 mg/kg/injection, schedule: Q07DX002 (ip), vehicle: Klucel (hydroxypropylcellulose) (HPC)); 46 % of control and 55 % of control (dose: 5.0 mg/kg/injection, schedule: Q07DX002 (ip), vehicle: Klucel (hydroxypropylcellulose) (HPC)); 52 % of control (dose: 10.0 mg/kg/injection, schedule: Q07DX002 (ip), vehicle: Klucel (hydroxypropylcellulose) (HPC)).

With `C=Cc1cnc([N+](=O)[O-])n1C`, the T/C was 67 % of control and 84 % of control (dose: 12.5 mg/kg/injection, schedule: Q07DX002 (ip), vehicle: Klucel (hydroxypropylcellulose) (HPC)); 109 % of control and 97 % of control under setting [13]; 62 % of control and 69 % of control under setting [14].

Take `CC1OC1C(=O)C1(O)C(C)C(O)C23OC2(C(O)c2c(O)cccc2C3=O)C1O` (configuration not stated): the T/C reads like this: (dose: 2.0 mg/kg/injection, schedule: Q07DX002 (ip), vehicle: Klucel (hydroxypropylcellulose) (HPC)) 95 % of control and 101 % of control; (dose: 4.0 mg/kg/injection, schedule: Q07DX002 (ip), vehicle: Klucel (hydroxypropylcellulose) (HPC)) 77 % of control and 91 % of control; (dose: 8.0 mg/kg/injection, schedule: Q07DX002 (ip), vehicle: Klucel (hydroxypropylcellulose) (HPC)) 95 % of control and 102 % of control; (dose: 32.0 mg/kg/injection, schedule: Q07DX002 (ip), vehicle: Klucel (hydroxypropylcellulose) (HPC)) 98 % of control; (dose: 64.0 mg/kg/injection, schedule: Q07DX002 (ip), vehicle: Klucel (hydroxypropylcellulose) (HPC)) 124 % of control.
